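All cell lines were grown in 96-well plates and treated with compound for 48 hours. TGI marks complete inhibition of growth.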

The subject of the first experiment is HCT-15 colon. As to the kind of experiment: NCI anticancer screen, dose series, 48 h.
`COc1ccc(-c2nc(SCC(=O)N/N=C/c3ccc(O)c(OC)c3)[nH]c2-c2ccc(OC)cc2)cc1` displayed a TGI of 82.8 µM.

In turn, `Cc1cn(CCCCCOC(=O)NC(CCCN=C(N)N)C(=O)O)c(=O)[nH]c1=O` (stereo not given) yielded a TGI above 100 µM.

As to `COc1ccc(C(=O)/C=C/c2ccncc2)cc1OC`, the TGI was 28.7 µM.

On to `CC(C)(C)NC(=O)N1N=C(c2ccccc2)C1c1ccccc1` (stereo not given), for which the TGI was determined as 75.2 µM.

`CC(C)(C)C(=O)OC(N)/C=C/c1ccccc1` (stereo not given) showed a TGI above 100 µM.

As to `O=C(CCc1cc(O)cc(O)c1)NCCc1cc(O)cc(O)c1`, the TGI is above 100 µM.

As to `CC1(C)OC(=C(C#N)C#N)C(C#N)=C1/C=C/c1ccncc1`, the TGI turned out to be 3.79 µM.

`C[C@@H]1CCC2[C@@H](C)[C@@H](OCCO[C@H]3OC4O[C@@]5(C)CCC6[C@H](C)CCC([C@H]3C)[C@@]46OO5)OC3O[C@@]4(C)CCC1[C@]32OO4` (stereo not given in full) gave a TGI above 100 µM.

The test system of the next experiment is HOP-62 NSCLC. Nature of the experiment: NCI anticancer screen, dose series, 48 h.
Turning to `CC(CCC#N)(CCC#N)C(=O)CC(O)(C(F)(F)F)C(F)(F)F`, the TGI stood at 38.7 µM.

`CC(C)(C)[Si](C)(C)OC1/C(=C/C#N)C(n2ccc(=O)[nH]c2=O)OC1CO` (stereo not given) gave a TGI above 100 µM.

The compound `COc1ccc(-c2c(C#N)c(O)n(NS(=O)(=O)c3ccc(C)cc3)c(=O)c2C#N)cc1` yielded a TGI above 100 µM.

Compound `Cc1ccc(NC(=S)NNC(=O)c2cc(-c3ccccc3)nc3ccccc23)cc1` registered a TGI of 27.8 µM.

The compound `O=C(O)c1cccnc1` came in with a TGI above 100 µM.

Regarding `COc1ccc(-c2nc(SCC(=O)N/N=C/c3ccc(O)c(OC)c3)[nH]c2-c2ccc(OC)cc2)cc1`, the TGI was 71.7 µM.

The compound `Cc1cn(CCCCCOC(=O)NC(CCCN=C(N)N)C(=O)O)c(=O)[nH]c1=O` (stereo not given) gave a TGI above 100 µM.

Turning to `COc1ccc(C(=O)/C=C/c2ccncc2)cc1OC`, the TGI turned out to be 29.9 µM.

`CC(C)(C)C(=O)OC(N)/C=C/c1ccccc1` (stereo not given): the TGI was above 100 µM.

Take `O=C(CCc1cc(O)cc(O)c1)NCCc1cc(O)cc(O)c1`: the TGI was above 100 µM.

For `C[C@@H]1CCC2[C@@H](C)[C@@H](OCCO[C@H]3OC4O[C@@]5(C)CCC6[C@H](C)CCC([C@H]3C)[C@@]46OO5)OC3O[C@@]4(C)CCC1[C@]32OO4` (stereo not given in full), the TGI is above 100 µM.

The test system of a further experiment is SNB-19 CNS. As to the kind of experiment: NCI anticancer screen, dose series, 48 h.
As for `CC(CCC#N)(CCC#N)C(=O)CC(O)(C(F)(F)F)C(F)(F)F`, the TGI was 53 µM.

As for `CC(C)(C)[Si](C)(C)OC1/C(=C/C#N)C(n2ccc(=O)[nH]c2=O)OC1CO` (stereo not given), the TGI was above 100 µM.

In the case of `COc1ccc(-c2c(C#N)c(O)n(NS(=O)(=O)c3ccc(C)cc3)c(=O)c2C#N)cc1`, the TGI was above 100 µM.

The compound `CC12CC(C#N)(C#N)C(C#N)(CO1)C(=N)O2` (stereo not given) yielded a TGI above 100 µM.

Turning to `COc1ccc(OC)c(N2C(=O)CSC2c2cc(OC)c(OC)c(OC)c2)c1` (stereo not given), the TGI was above 100 µM.

Take `COc1ccc(CCN=C2OCc3ccccc32)cc1OC`: the TGI is above 100 µM.

Turning to `Cc1ccc(NC(=S)NNC(=O)c2cc(-c3ccccc3)nc3ccccc23)cc1`, the TGI is 42.4 µM.

Compound `O=C(O)c1cccnc1` registered a TGI above 100 µM.

The compound `COc1ccc(-c2nc(SCC(=O)N/N=C/c3ccc(O)c(OC)c3)[nH]c2-c2ccc(OC)cc2)cc1` had a TGI above 100 µM.

Take `Cc1cn(CCCCCOC(=O)NC(CCCN=C(N)N)C(=O)O)c(=O)[nH]c1=O` (stereo not given): the TGI is above 100 µM.

Compound `COc1ccc(C(=O)/C=C/c2ccncc2)cc1OC` had a TGI of 32.5 µM.

The compound `CC(C)(C)NC(=O)N1N=C(c2ccccc2)C1c1ccccc1` (stereo not given) had a TGI above 100 µM.

`O=C(CCc1cc(O)cc(O)c1)NCCc1cc(O)cc(O)c1` returned a TGI above 100 µM.

`CC1(C)OC(=C(C#N)C#N)C(C#N)=C1/C=C/c1ccncc1` displayed a TGI of 6.16 µM.

Take `C[C@@H]1CCC2[C@@H](C)[C@@H](OCCO[C@H]3OC4O[C@@]5(C)CCC6[C@H](C)CCC([C@H]3C)[C@@]46OO5)OC3O[C@@]4(C)CCC1[C@]32OO4` (stereo not given in full): the TGI is above 100 µM.

The subject of the next experiment is SK-MEL-28 melanoma. Nature of the experiment: NCI anticancer screen, dose series, 48 h.
Take `CC(CCC#N)(CCC#N)C(=O)CC(O)(C(F)(F)F)C(F)(F)F`: the TGI worked out at 27.2 µM.

Regarding `CC(C)(C)[Si](C)(C)OC1/C(=C/C#N)C(n2ccc(=O)[nH]c2=O)OC1CO` (stereo not given), the TGI was above 100 µM.

In turn, `COc1ccc(-c2c(C#N)c(O)n(NS(=O)(=O)c3ccc(C)cc3)c(=O)c2C#N)cc1` had a TGI above 100 µM.

`CC12CC(C#N)(C#N)C(C#N)(CO1)C(=N)O2` (stereo not given) showed a TGI above 100 µM.

Turning to `COc1ccc(OC)c(N2C(=O)CSC2c2cc(OC)c(OC)c(OC)c2)c1` (stereo not given), the TGI is above 100 µM.

In the case of `COc1ccc(CCN=C2OCc3ccccc32)cc1OC`, the TGI is above 100 µM.

Compound `Cc1ccc(NC(=S)NNC(=O)c2cc(-c3ccccc3)nc3ccccc23)cc1` registered a TGI of 20.1 µM.

On to `O=C(O)c1cccnc1`, for which the TGI is above 100 µM.

The compound `COc1ccc(-c2nc(SCC(=O)N/N=C/c3ccc(O)c(OC)c3)[nH]c2-c2ccc(OC)cc2)cc1` gave a TGI of 74.8 µM.

Take `Cc1cn(CCCCCOC(=O)NC(CCCN=C(N)N)C(=O)O)c(=O)[nH]c1=O` (stereo not given): the TGI is above 100 µM.

For the compound `COc1ccc(C(=O)/C=C/c2ccncc2)cc1OC`, the TGI stood at 31.7 µM.

Consider `CC(C)(C)NC(=O)N1N=C(c2ccccc2)C1c1ccccc1` (stereo not given), for which the TGI is above 100 µM.

`CC(C)(C)C(=O)OC(N)/C=C/c1ccccc1` (stereo not given) displayed a TGI above 100 µM.

`O=C(CCc1cc(O)cc(O)c1)NCCc1cc(O)cc(O)c1` came in with a TGI above 100 µM.

As for `CC1(C)OC(=C(C#N)C#N)C(C#N)=C1/C=C/c1ccncc1`, the TGI was 5.43 µM.

Turning to `C[C@@H]1CCC2[C@@H](C)[C@@H](OCCO[C@H]3OC4O[C@@]5(C)CCC6[C@H](C)CCC([C@H]3C)[C@@]46OO5)OC3O[C@@]4(C)CCC1[C@]32OO4` (stereo not given in full), the TGI is above 100 µM.

For a further experiment, the system named is MCF7 breast. As to the kind of experiment: NCI anticancer screen, dose series, 48 h.
In turn, `CC(CCC#N)(CCC#N)C(=O)CC(O)(C(F)(F)F)C(F)(F)F` showed a TGI of 21.2 µM.

Compound `CC(C)(C)[Si](C)(C)OC1/C(=C/C#N)C(n2ccc(=O)[nH]c2=O)OC1CO` (stereo not given) had a TGI above 100 µM.

In turn, `COc1ccc(-c2c(C#N)c(O)n(NS(=O)(=O)c3ccc(C)cc3)c(=O)c2C#N)cc1` yielded a TGI above 100 µM.

`CC12CC(C#N)(C#N)C(C#N)(CO1)C(=N)O2` (stereo not given) showed a TGI above 100 µM.

On to `COc1ccc(OC)c(N2C(=O)CSC2c2cc(OC)c(OC)c(OC)c2)c1` (stereo not given), for which the TGI was above 100 µM.

For the compound `COc1ccc(CCN=C2OCc3ccccc32)cc1OC`, the TGI was determined as 90.4 µM.

`Cc1ccc(NC(=S)NNC(=O)c2cc(-c3ccccc3)nc3ccccc23)cc1` displayed a TGI of 31.5 µM.

For the compound `O=C(O)c1cccnc1`, the TGI is above 100 µM.

For the compound `COc1ccc(-c2nc(SCC(=O)N/N=C/c3ccc(O)c(OC)c3)[nH]c2-c2ccc(OC)cc2)cc1`, the TGI was found to be 33.6 µM.

`Cc1cn(CCCCCOC(=O)NC(CCCN=C(N)N)C(=O)O)c(=O)[nH]c1=O` (stereo not given): the TGI was above 100 µM.

On to `COc1ccc(C(=O)/C=C/c2ccncc2)cc1OC`, for which the TGI amounted to 13.4 µM.

As for `CC(C)(C)NC(=O)N1N=C(c2ccccc2)C1c1ccccc1` (stereo not given), the TGI was above 100 µM.

`CC(C)(C)C(=O)OC(N)/C=C/c1ccccc1` (stereo not given): the TGI is above 100 µM.

Regarding `O=C(CCc1cc(O)cc(O)c1)NCCc1cc(O)cc(O)c1`, the TGI is above 100 µM.

For `CC1(C)OC(=C(C#N)C#N)C(C#N)=C1/C=C/c1ccncc1`, the TGI is 4.28 µM.

On to `C[C@@H]1CCC2[C@@H](C)[C@@H](OCCO[C@H]3OC4O[C@@]5(C)CCC6[C@H](C)CCC([C@H]3C)[C@@]46OO5)OC3O[C@@]4(C)CCC1[C@]32OO4` (stereo not given in full), for which the TGI is above 42.3 µM.

The test system of another experiment is OVCAR-3 ovarian. As to the kind of experiment: NCI anticancer screen, dose series, 48 h.
`CC(CCC#N)(CCC#N)C(=O)CC(O)(C(F)(F)F)C(F)(F)F` registered a TGI of 7.73 µM.

For `CC(C)(C)[Si](C)(C)OC1/C(=C/C#N)C(n2ccc(=O)[nH]c2=O)OC1CO` (stereo not given), the TGI was above 100 µM.

Turning to `CC12CC(C#N)(C#N)C(C#N)(CO1)C(=N)O2` (stereo not given), the TGI was above 100 µM.

As to `COc1ccc(OC)c(N2C(=O)CSC2c2cc(OC)c(OC)c(OC)c2)c1` (stereo not given), the TGI was above 100 µM.
